Results on seven compounds are retold here after ChEMBL document CHEMBL1201862, “PubChem BioAssay data set” (2004).

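Growth conditions: 96-well plates. Treatment: test compound, 48 hours, 5 concentrations. Analysis: linear interpolation between bracketing concentrations; unreached endpoints set to highest concentration. Abbreviation: GI50, concentration required for 50% inhibition of growth.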 Activity calls are given as the source filed them. Rule as the data show it: active = GI50 up to about 1.1 µM and inactive = higher.

Common to all, as to assay: NCI-60 cell line screen, 48 h
Assay [1] deals with UO-31.
The test system of assay [2] is UACC-257.
Assay [3] deals with HCT-15.
In assay [4] the test system is EKVX.
Assay [5] concerns CAKI-1.
Assay [6] concerns BT-549.
Assay [7] relates to SNB-75.
In assay [8] the test system is OVCAR-8.
Assay [9] deals with OVCAR-3.
The subject of assay [10] is SF-295.
Assay [11] concerns TK-10.
Assay [12] concerns KM12.
For assay [13], the system named is OVCAR-5.
Assay [14] has as its system A498.
The subject of assay [15] is SK-MEL-28.
Assay [16] deals with HCC 2998.
Assay [17] relates to SR.
Assay [18] deals with NCI-H522.
Assay [19] relates to SK-MEL-2.
In assay [20] the test system is NCI/ADR-RES.

Turning to `CCOC(=O)Nc1nc(-c2ccccc2)c(C)s1`, the GI50 in assay [1] is 60 µM (inactive); in assay [2], > 100 µM (inactive); in assay [3] it was 40.9 µM; in assay [4] it was 23.7 µM (inactive); in [5], > 100 µM (inactive); in [6] it was 53.8 µM (inactive). Besides, the GI50 in assay [7] is 31.8 µM (inactive); in [8], > 100 µM (inactive); in [9], 98.9 µM (inactive); in assay [10], > 100 µM (inactive); in assay [11], > 100 µM (inactive); in assay [12], > 100 µM (inactive). Besides, the GI50 in assay [13] was > 100 µM (inactive); in assay [14], > 100 µM (inactive); in [15], > 100 µM (inactive); in [16] it was > 100 µM (inactive); in assay [17], 49.9 µM (inactive); in [18], 28 µM (inactive). Further, the GI50 is > 100 µM (inactive) in [19] and 59 µM (inactive) in [20].
Take `NNC(=O)CCSc1ccccc1`: the GI50 in [1] is > 100 µM (inactive); in assay [2], > 100 µM (inactive); in [3] it was over 100 µM; in assay [4], > 100 µM (inactive); in [5], > 100 µM (inactive); in [6], > 100 µM (inactive). Besides, the GI50 in assay [7], in assay [8], in assay [9], in assay [10], in assay [11] and in assay [12] was > 100 µM (inactive) each time. The GI50 in assay [13], in [14], in [15], in assay [16], in assay [17] and in [18] was > 100 µM (inactive) throughout. Further, the GI50 in assay [19] and in assay [20] was > 100 µM (inactive) in each case.
For `COc1cc2cc(C(=O)N3CC(CCl)c4ccc([N+](C)(C)Cc5ccc([N+](=O)[O-])cc5)cc43)[nH]c2c(OC)c1OC` (stereo not given), the GI50 in assay [1] is 2.1 µM (inactive); in [2], 1.83 µM (inactive); in [3], 3.2 µM; in [4], 5.69 µM (inactive); in assay [5], 2.05 µM (inactive); in assay [6], 5.74 µM (inactive). Also, the GI50 in assay [7] was 3.3 µM (inactive); in [8] it was 1.75 µM (inactive); in [9] it was 1.96 µM (inactive); in assay [10], 2.58 µM (inactive); in assay [11], 1.86 µM (inactive); in assay [12], 2.77 µM (inactive). Moreover, the GI50 in assay [13] is 3.87 µM (inactive); in [14], 1.76 µM (inactive); in assay [15], 9.29 µM (inactive); in assay [16], 1.41 µM (inactive); in assay [17], 0.363 µM (active); in [18] it was 0.552 µM (active). In addition, the GI50 was 2.05 µM (inactive) in [19] and 1.71 µM (inactive) in assay [20].
For `CC(=O)NC1C(OCc2ccccc2)OC(CO)C(O)C1OCC(=O)N1CCCC1C(=O)NC(CCC(=O)NCCCCCNc1c2ccccc2nc2cccc([N+](=O)[O-])c12)C(N)=O` (stereo not given), the GI50 was 0.0422 µM (active) in [1]; 0.0481 µM (active) in assay [2]; 0.0164 µM in assay [3]; 0.148 µM (active) in assay [4]; 0.0262 µM (active) in assay [5]; 0.0524 µM (active) in assay [6]. Moreover, the GI50 was 0.145 µM (active) in [7]; 0.00497 µM (active) in assay [8]; 0.0301 µM (active) in assay [9]; 0.048 µM (active) in assay [10]; 0.0508 µM (active) in [11]; 0.02 µM (active) in assay [12]. For the same compound, the GI50 in [13] is 0.0231 µM (active); in assay [14], 0.0568 µM (active); in [15] it was 0.0307 µM (active); in assay [16], 0.00706 µM (active); in [17], 0.281 µM (active); in [18], 0.0353 µM (active). The figures for the GI50 in assay [19] and in assay [20] were 0.019 µM (active) and 0.0726 µM (active), respectively.
On to `COc1cc2c(cc1OC)C(=O)/C(=C/c1ccccc1)CC2`, for which the GI50 is > 100 µM (inactive) in assay [1]; 61.2 µM (inactive) in assay [2]; 20.8 µM in assay [3]; 56.1 µM (inactive) in [4]; 17.1 µM (inactive) in [5]; 12.5 µM (inactive) in assay [6]. In addition, the GI50 in [7] was 17 µM (inactive); in assay [8], 45.5 µM (inactive); in [9], 37.6 µM (inactive); in assay [10] it was 20.7 µM (inactive); in assay [11], 33.4 µM (inactive); in assay [12], 14.4 µM (inactive). Also, the GI50 was 27.4 µM (inactive) in [13]; 26.1 µM (inactive) in [14]; 64.9 µM (inactive) in assay [15]; 22.6 µM (inactive) in assay [16]; 13.5 µM (inactive) in assay [17]; 52.6 µM (inactive) in assay [18]. Further, the GI50 was 14.1 µM (inactive) in assay [19] and 17.3 µM (inactive) in assay [20].
`COC(=O)C(Cc1c[nH]c2ccccc12)NC1=Nc2ccncc2S(=O)(=O)N1c1cccc(OC(C)C)c1` (stereo not given): the GI50 was 45.3 µM (inactive) in assay [1]; > 100 µM (inactive) in [2]; 43.2 µM in [3]; 36.6 µM (inactive) in assay [4]; 32.4 µM (inactive) in assay [5]; 27.8 µM (inactive) in [6]. Moreover, the GI50 in [7] is 53.2 µM (inactive); in [8], 30.3 µM (inactive); in [9] it was 36 µM (inactive); in [10] it was 42 µM (inactive); in assay [11] it was > 100 µM (inactive); in assay [12], 63.2 µM (inactive). For the same compound, the GI50 in assay [13] is > 100 µM (inactive); in assay [14] it was 82 µM (inactive); in assay [15], > 100 µM (inactive); in assay [16] it was 48.8 µM (inactive); in assay [17], 21.8 µM (inactive); in assay [18] it was 21.4 µM (inactive). Moreover, the GI50 in assay [19] was 39.7 µM (inactive); in assay [20] it was 20.9 µM (inactive).
Take `C1CN(c2nnc(N3CCC3)nn2)C1`: the GI50 in assay [1] was > 100 µM (inactive); in assay [2], 22.9 µM (inactive); in assay [3], over 100 µM; in [4] it was > 85.3 µM (inactive); in assay [5] it was > 94.4 µM (inactive); in [6], > 65.9 µM (inactive). Also, the GI50 is 21 µM (inactive) in assay [7]; > 100 µM (inactive) in [8]; > 92.7 µM (inactive) in [9]; 37.3 µM (inactive) in assay [10]; > 100 µM (inactive) in [11]; > 89.5 µM (inactive) in assay [12]. For the same compound, the GI50 in [13] was 41.2 µM (inactive); in assay [14] it was > 100 µM (inactive); in assay [15], 44.5 µM (inactive); in assay [16] it was > 100 µM (inactive); in [17] it was > 100 µM (inactive); in assay [18], 44.4 µM (inactive). Further, the GI50 was 44.1 µM (inactive) in [19] and > 53 µM (inactive) in assay [20].
